Measured values taken from ChEMBL document CHEMBL1201861, “Genomics of Drug Sensitity in Cancer screening data, Wellcome Trust Sanger Institute”.

Columns and labels:
CPC-N = assay: cells; format: functional, cell-based; settings: Homo sapiens;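 further: growth inhibition of CPC-N cells, with a cell viability assay as the readout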
Description: SANGER: Inhibition of human CPC-N cell growth in a cell viability assay.

DG-75 = assay: cells; format: functional, cell-based; settings: Homo sapiens;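 further: growth inhibition of DG-75 cells, read out with a cell viability assay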
Description: SANGER: Inhibition of human DG-75 cell growth in a cell viability assay.

DMS-153 = assay: cells; format: functional, cell-based; settings: Homo sapiens
Description: SANGER: Inhibition of human DMS-153 cell growth in a cell viability assay.

Daudi = assay: cells; format: functional, cell-based; settings: Homo sapiens;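 further: growth inhibition of Daudi cells, read out by a viability assay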
Description: SANGER: Inhibition of human Daudi cell growth in a cell viability assay.

ECC4 = assay: cells; format: functional, cell-based; settings: Homo sapiens;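 further: growth inhibition of ECC4 cells, read out with a cell viability assay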
Description: SANGER: Inhibition of human ECC4 cell growth in a cell viability assay.

EHEB = assay: cells; format: functional, cell-based; settings: Homo sapiens;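 further: growth inhibition of human EHEB cells, read out with a cell viability assay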
Description: SANGER: Inhibition of human EHEB cell growth in a cell viability assay.

GCIY = assay: cells; format: functional, cell-based, Homo sapiens; settings: Homo sapiens, GCIY;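 further: growth inhibition of the human GCIY cell line, read out by a cell viability assay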
Description: SANGER: Inhibition of human GCIY cell growth in a cell viability assay.

IMR-5 = assay: cells; format: functional, cell-based; settings: Homo sapiens;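 further: growth inhibition of human IMR-5 cells, read out with a cell viability assay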
Description: SANGER: Inhibition of human IMR-5 cell growth in a cell viability assay.

L-428 = assay: cells; format: functional, cell-based; settings: Homo sapiens
Description: SANGER: Inhibition of human L-428 cell growth in a cell viability assay.

LB647-SCLC = assay: cells; format: functional, cell-based; settings: Homo sapiens;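 further: cell growth inhibition, read out by a viability assay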
Description: SANGER: Inhibition of human LB647-SCLC cell growth in a cell viability assay.

LB831-BLC = assay: cells; format: functional, cell-based, Homo sapiens; settings: Homo sapiens, LB831-BLC;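 further: growth inhibition of LB831-BLC cells, read out with a cell viability assay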
Description: SANGER: Inhibition of human LB831-BLC cell growth in a cell viability assay.

LNCaP-Clone-FGC = assay: cells; format: functional, cell-based, Homo sapiens; settings: Homo sapiens, LNCaP-Clone-FGC
LP-1 = assay: cells; format: functional, cell-based; settings: Homo sapiens;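 further: growth inhibition of human LP-1 cells, with the read-out taken from a cell viability assay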
Description: SANGER: Inhibition of human LP-1 cell growth in a cell viability assay.

LS-123 = assay: cells; format: functional, cell-based, Homo sapiens; settings: Homo sapiens, LS-123
MHH-CALL-2 = assay: cells; format: functional, cell-based; settings: Homo sapiens;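 further: growth inhibition of the cell line, read out in a cell viability assay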
Description: SANGER: Inhibition of human MHH-CALL-2 cell growth in a cell viability assay.

MOLT-13 = assay: cells; format: functional, cell-based; settings: Homo sapiens;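 further: IC50 for suppression of MOLT-13 cell growth, read out with a cell viability assay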
Description: SANGER: Inhibition of human MOLT-13 cell growth in a cell viability assay.

MS-1 = assay: cells; format: functional, cell-based; settings: Homo sapiens
Description: SANGER: Inhibition of human MS-1 cell growth in a cell viability assay.

MZ1-PC = assay: cells; format: functional, cell-based, Homo sapiens; settings: Homo sapiens, MZ1-PC;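 further: cell viability assay measuring growth inhibition of human MZ1-PC cells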
Description: SANGER: Inhibition of human MZ1-PC cell growth in a cell viability assay.

NALM-6 = assay: cells; format: functional, cell-based; settings: Homo sapiens;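 further: growth inhibition of NALM-6 cells, read out with a cell viability assay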
Description: SANGER: Inhibition of human NALM-6 cell growth in a cell viability assay.

NCI-H1417 = assay: cells; format: functional, cell-based; settings: Homo sapiens;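 further: human NCI-H1417 cells, growth inhibition determined with a cell viability readout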
Description: SANGER: Inhibition of human NCI-H1417 cell growth in a cell viability assay.

NCI-H2081 = assay: cells; format: functional, cell-based; settings: Homo sapiens;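 further: growth inhibition of human NCI-H2081 cells, read out with a cell viability assay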
Description: SANGER: Inhibition of human NCI-H2081 cell growth in a cell viability assay.

NCI-H345 = assay: cells; format: functional, cell-based; settings: Homo sapiens;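 further: growth inhibition of NCI-H345 cells measured with a cell viability assay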
Description: SANGER: Inhibition of human NCI-H345 cell growth in a cell viability assay.

NCI-H748 = assay: cells; format: functional, cell-based; settings: Homo sapiens;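 further: growth inhibition of NCI-H748 cells, measured by a cell viability assay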
Description: SANGER: Inhibition of human NCI-H748 cell growth in a cell viability assay.

PF-382 = assay: cells; format: functional, cell-based; settings: Homo sapiens
Description: SANGER: Inhibition of human PF-382 cell growth in a cell viability assay.

REH = assay: cells; format: functional, cell-based; settings: Homo sapiens;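 further: growth inhibition of REH cells determined with a cell viability read-out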
Description: SANGER: Inhibition of human REH cell growth in a cell viability assay.

RL = assay: cells; format: functional, cell-based; settings: Homo sapiens
Description: SANGER: Inhibition of human RL cell growth in a cell viability assay.

RPMI-6666 = assay: cells; format: functional, cell-based; settings: Homo sapiens
Description: SANGER: Inhibition of human RPMI-6666 cell growth in a cell viability assay.

RPMI-8226 = assay: cells; format: functional, cell-based; settings: Homo sapiens
Description: SANGER: Inhibition of human RPMI-8226 cell growth in a cell viability assay.

SBC-1 = assay: cells; format: functional, cell-based; settings: Homo sapiens;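 further: cell viability assay measuring growth inhibition of the SBC-1 cell line, IC50 being the concentration that halves growth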
Description: SANGER: Inhibition of human SBC-1 cell growth in a cell viability assay.

SIMA = assay: cells; format: functional, cell-based, Homo sapiens; settings: Homo sapiens, SIMA;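 further: growth inhibition of SIMA cells, measured with a cell viability readout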
Description: SANGER: Inhibition of human SIMA cell growth in a cell viability assay.

TALL-1 = assay: cells; format: functional, cell-based; settings: Homo sapiens;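 further: growth inhibition of cultured human TALL-1 cells, read out by a cell viability assay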
Description: SANGER: Inhibition of human TALL-1 cell growth in a cell viability assay.

BC1 cell line = assay: SANGER: Inhibition of human BC-1 cell growth in a cell viability assay.; format: functional, cell-based
BE-13 = assay: cells; format: functional, cell-based; settings: Homo sapiens;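 further: growth inhibition of human BE-13 cells, measured with a cell viability assay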
Description: SANGER: Inhibition of human BE-13 cell growth in a cell viability assay.

TE-441-T = assay: cells; format: functional, cell-based; settings: Homo sapiens
Description: SANGER: Inhibition of human TE-441-T cell growth in a cell viability assay.

U-698-M = assay: cells; format: functional, cell-based; settings: Homo sapiens
Description: SANGER: Inhibition of human U-698-M cell growth in a cell viability assay.

HCC70 = assay: cells; format: functional, cell-based, Homo sapiens; settings: Homo sapiens, HCC70;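 further: cell viability assay measuring how strongly the compound suppresses proliferation of HCC70 cells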
Description: SANGER: Inhibition of human HCC70 cell growth in a cell viability assay.

HCT-116 = assay: cells; format: functional, cell-based, Homo sapiens; settings: Homo sapiens, HCT-116
Description: SANGER: Inhibition of human HCT-116 cell growth in a cell viability assay.

HCT-15 = assay: cells; format: functional, cell-based, Homo sapiens; settings: Homo sapiens, HCT-15;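 further: cell viability readout, IC50 reflecting suppression of HCT-15 cell growth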
Description: SANGER: Inhibition of human HCT-15 cell growth in a cell viability assay.

KU-19-19 = assay: cells; format: functional, cell-based, Homo sapiens; settings: Homo sapiens, KU-19-19
Description: SANGER: Inhibition of human KU-19-19 cell growth in a cell viability assay.

LU-99A = assay: cells; format: functional, cell-based, Homo sapiens; settings: Homo sapiens, LU-99A;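 further: growth inhibition of LU-99A cells, read out with a cell viability assay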
Description: SANGER: Inhibition of human LU-99A cell growth in a cell viability assay.

MC-IXC = assay: cells; format: functional, cell-based, Homo sapiens; settings: Homo sapiens, MC-IXC;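 further: growth inhibition of MC-IXC cells, read out with a cell viability assay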
Description: SANGER: Inhibition of human MC-IXC cell growth in a cell viability assay.

NCI-H2228 = assay: cells; format: functional, cell-based, Homo sapiens; settings: Homo sapiens, NCI-H2228;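 further: growth inhibition of human NCI-H2228 cells, read out by a cell viability assay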
Description: SANGER: Inhibition of human NCI-H2228 cell growth in a cell viability assay.

NY = assay: cells; format: functional, cell-based, Homo sapiens; settings: Homo sapiens, NY
Description: SANGER: Inhibition of human NY cell growth in a cell viability assay.

PANC-08-13 = assay: cells; format: functional, cell-based, Homo sapiens; settings: Homo sapiens, PANC-08-13
Description: SANGER: Inhibition of human PANC-08-13 cell growth in a cell viability assay.

RD = assay: cells; format: functional, cell-based, Homo sapiens; settings: Homo sapiens, RD
Description: SANGER: Inhibition of human RD cell growth in a cell viability assay.

SJRH30 = assay: cells; format: functional, cell-based; settings: Homo sapiens;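 further: growth inhibition of human SJRH30 cells, read out with a cell viability assay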
Description: SANGER: Inhibition of human SJRH30 cell growth in a cell viability assay.

SK-N-AS = assay: cells; format: functional, cell-based, Homo sapiens; settings: Homo sapiens, SK-N-AS;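 further: growth inhibition of human SK-N-AS cells, measured with a cell viability assay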
Description: SANGER: Inhibition of human SK-N-AS cell growth in a cell viability assay.

SNU-423 = assay: cells; format: functional, cell-based, Homo sapiens; settings: Homo sapiens, SNU-423
Description: SANGER: Inhibition of human SNU-423 cell growth in a cell viability assay.

SW756 = assay: cells; format: functional, cell-based, Homo sapiens; settings: Homo sapiens, SW756;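 further: growth inhibition of human SW756 cells, read out with a cell viability assay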
Description: SANGER: Inhibition of human SW756 cell growth in a cell viability assay.

CN1CCN(CCOc2cc(OC3CCOCC3)c3c(Nc4c(Cl)ccc5c4OCO5)ncnc3c2)CC1 [SARACATINIB]
IC50 (CPC-N): > 2000 nM | IC50 (DG-75): > 2000 nM | IC50 (DMS-153): > 2000 nM | IC50 (Daudi): > 2000 nM | IC50 (ECC4): > 2000 nM | IC50 (EHEB): > 2000 nM | IC50 (GCIY): > 2000 nM | IC50 (IMR-5): > 2000 nM | IC50 (L-428): > 2000 nM | IC50 (LB647-SCLC): > 2000 nM | IC50 (LB831-BLC): > 2000 nM | IC50 (LNCaP-Clone-FGC): > 2000 nM | IC50 (LP-1): > 2000 nM | IC50 (LS-123): > 2000 nM | IC50 (MHH-CALL-2): > 2000 nM | IC50 (MOLT-13): > 2000 nM | IC50 (MS-1): > 2000 nM | IC50 (MZ1-PC): > 2000 nM | IC50 (NALM-6): > 2000 nM | IC50 (NCI-H1417): > 2000 nM | IC50 (NCI-H2081): > 2000 nM | IC50 (NCI-H345): > 2000 nM | IC50 (NCI-H748): > 2000 nM | IC50 (PF-382): > 2000 nM | IC50 (REH): > 2000 nM | IC50 (RL): > 2000 nM | IC50 (RPMI-6666): > 2000 nM | IC50 (RPMI-8226): > 2000 nM | IC50 (SBC-1): > 2000 nM | IC50 (SIMA): > 2000 nM | IC50 (TALL-1): > 2000 nM | IC50 (BC1 cell line): > 2000 nM | IC50 (BE-13): > 2000 nM | IC50 (TE-441-T): > 2000 nM | IC50 (U-698-M): > 2000 nM

Cc1ccc(Nc2nccc(N(C)c3ccc4c(C)n(C)nc4c3)n2)cc1S(N)(=O)=O [PAZOPANIB]
IC50 (CPC-N): > 8000 nM | IC50 (DG-75): > 8000 nM | IC50 (DMS-153): > 8000 nM | IC50 (Daudi): 3660 nM | IC50 (ECC4): > 8000 nM | IC50 (EHEB): > 8000 nM | IC50 (GCIY): > 8000 nM | IC50 (HCC70): > 8000 nM | IC50 (HCT-116): > 8000 nM | IC50 (HCT-15): > 8000 nM | IC50 (IMR-5): > 8000 nM | IC50 (KU-19-19): > 8000 nM | IC50 (L-428): > 8000 nM | IC50 (LB647-SCLC): > 8000 nM | IC50 (LB831-BLC): 2550 nM | IC50 (LNCaP-Clone-FGC): > 8000 nM | IC50 (LP-1): > 8000 nM | IC50 (LS-123): > 8000 nM | IC50 (LU-99A): > 8000 nM | IC50 (MC-IXC): 1120 nM | IC50 (MHH-CALL-2): > 8000 nM | IC50 (MS-1): > 8000 nM | IC50 (MZ1-PC): > 8000 nM | IC50 (NALM-6): > 8000 nM | IC50 (NCI-H1417): > 8000 nM | IC50 (NCI-H2081): > 8000 nM | IC50 (NCI-H2228): > 8000 nM | IC50 (NCI-H345): > 8000 nM | IC50 (NCI-H748): > 8000 nM | IC50 (NY): 1850 nM | IC50 (PANC-08-13): > 8000 nM | IC50 (PF-382): > 8000 nM | IC50 (RD): > 8000 nM | IC50 (REH): > 8000 nM | IC50 (RL): > 8000 nM | IC50 (RPMI-6666): > 8000 nM | IC50 (RPMI-8226): > 8000 nM | IC50 (SBC-1): > 8000 nM | IC50 (SIMA): > 8000 nM | IC50 (SJRH30): > 8000 nM | IC50 (SK-N-AS): > 8000 nM | IC50 (SNU-423): > 8000 nM | IC50 (SW756): > 8000 nM | IC50 (TALL-1): > 8000 nM | IC50 (BC1 cell line): > 8000 nM | IC50 (BE-13): > 8000 nM | IC50 (TE-441-T): > 8000 nM | IC50 (U-698-M): > 8000 nM

C=CCc1cccc(/C=N/NC(=O)CN2CCN(Cc3ccccc3)CC2)c1O [PAC-1]
IC50 (CPC-N): > 2560 nM | IC50 (DG-75): > 2560 nM | IC50 (DMS-153): > 2560 nM | IC50 (Daudi): 947 nM | IC50 (ECC4): > 2560 nM | IC50 (EHEB): > 2560 nM | IC50 (GCIY): > 2560 nM | IC50 (HCC70): > 2560 nM | IC50 (HCT-116): > 2560 nM | IC50 (HCT-15): 1580 nM | IC50 (IMR-5): > 2560 nM | IC50 (KU-19-19): > 2560 nM | IC50 (L-428): 1330 nM | IC50 (LB647-SCLC): > 2560 nM | IC50 (LB831-BLC): > 2560 nM | IC50 (LNCaP-Clone-FGC): > 2560 nM | IC50 (LP-1): > 2560 nM | IC50 (LS-123): > 2560 nM | IC50 (LU-99A): > 2560 nM | IC50 (MC-IXC): > 2560 nM | IC50 (MHH-CALL-2): > 2560 nM | IC50 (MS-1): > 2560 nM | IC50 (MZ1-PC): > 2560 nM | IC50 (NALM-6): 703 nM | IC50 (NCI-H1417): > 2560 nM | IC50 (NCI-H2081): > 2560 nM | IC50 (NCI-H2228): > 2560 nM | IC50 (NCI-H345): > 2560 nM | IC50 (NCI-H748): > 2560 nM | IC50 (NY): > 2560 nM | IC50 (PANC-08-13): > 2560 nM | IC50 (PF-382): 1060 nM | IC50 (RD): > 2560 nM | IC50 (REH): 944 nM | IC50 (RL): > 2560 nM | IC50 (RPMI-6666): 1040 nM | IC50 (RPMI-8226): > 2560 nM | IC50 (SBC-1): > 2560 nM | IC50 (SIMA): > 2560 nM | IC50 (SJRH30): > 2560 nM | IC50 (SK-N-AS): > 2560 nM | IC50 (SNU-423): > 2560 nM | IC50 (SW756): > 2560 nM | IC50 (TALL-1): > 2560 nM | IC50 (BC1 cell line): 1100 nM | IC50 (BE-13): > 2560 nM | IC50 (TE-441-T): > 2560 nM | IC50 (U-698-M): > 2560 nM

CCC(=O)N1CCN(c2ccc(-n3c(=O)ccc4cnc5ccc(-c6cnc7ccccc7c6)cc5c43)cc2C(F)(F)F)CC1 [TORIN1]
IC50 (CPC-N): 1160 nM | IC50 (DG-75): 262 nM | IC50 (DMS-153): > 1200 nM | IC50 (Daudi): 42.3 nM | IC50 (ECC4): 1190 nM | IC50 (EHEB): 512 nM | IC50 (GCIY): 10.1 nM | IC50 (IMR-5): 165 nM | IC50 (L-428): 103 nM | IC50 (LB647-SCLC): 117 nM | IC50 (LB831-BLC): 161 nM | IC50 (LNCaP-Clone-FGC): > 1200 nM | IC50 (LP-1): 89.4 nM | IC50 (LS-123): 59.4 nM | IC50 (MHH-CALL-2): 335 nM | IC50 (MOLT-13): 302 nM | IC50 (MS-1): 402 nM | IC50 (MZ1-PC): 66 nM | IC50 (NALM-6): 11 nM | IC50 (NCI-H1417): 697 nM | IC50 (NCI-H2081): > 1200 nM | IC50 (NCI-H345): > 1200 nM | IC50 (NCI-H748): 189 nM | IC50 (PF-382): 75.7 nM | IC50 (REH): > 1200 nM | IC50 (RL): > 1200 nM | IC50 (RPMI-6666): 288 nM | IC50 (RPMI-8226): 6.51 nM | IC50 (SBC-1): 111 nM | IC50 (SIMA): > 1200 nM | IC50 (TALL-1): 229 nM | IC50 (BC1 cell line): > 1200 nM | IC50 (BE-13): 37.6 nM | IC50 (TE-441-T): 1040 nM | IC50 (U-698-M): > 1200 nM
